Data from article PMC7614784, “Structure and function of the RAD51B-RAD51C-RAD51D-XRCC2 tumour suppressor” (Nature, 2023).
Where a chain is given by its changes, count along the chain named. Values belong to the molecule of their own block, whether it stands above or below them.

Columns and labels:
[1] = target: T1, BCDX2 (RAD51B-RAD51C-RAD51D-XRCC2) (Homo sapiens, UniProt O15315+O43502+O43543+O75771); assay: cryo-EM structure ([…] Å and […] Å); assay type: binding; settings: Mg2+, sample vitrified with ADP.AlFx or ADP.BeFx
T1 construct: four-subunit complex co-expressed in Sf9 cells; N-terminal TwinStrep-TEV tag on XRCC2 removed by TEV protease

[2] = target: T2, BCDX2 (RAD51B-RAD51C-RAD51D-XRCC2) (Homo sapiens, UniProt O15315+O43502+O43543+O75771, O15315:K114A, form not given); assay: HPLC of nucleotides extracted from purified complex; assay type: binding; settings: RAD51B Walker A mutant; nucleotide co-purified with the complex; 2.5 mM Mg2+, pH 7.5
T2 construct: four-subunit complex co-expressed in Sf9 cells; N-terminal TwinStrep-TEV tag on XRCC2 removed by TEV protease

[3] = target: T1, BCDX2 (RAD51B-RAD51C-RAD51D-XRCC2); assay: as above; assay type: binding; settings: nucleotide co-purified with the complex; 2.5 mM Mg2+, pH 7.5; sites: RAD51B and RAD51C
[4] = target: T3, BCDX2 (RAD51B-RAD51C-RAD51D-XRCC2) (Homo sapiens, UniProt O15315+O43502+O43543+O75771, O43502:E161A, form not given); assay: as above; assay type: binding; settings: RAD51C catalytic glutamate mutant; 2.5 mM Mg2+, pH 7.5
T3 construct: four-subunit complex co-expressed in Sf9 cells; N-terminal TwinStrep-TEV tag on XRCC2 removed by TEV protease

[5] = target: T4, BCDX2 (RAD51B-RAD51C-RAD51D-XRCC2) (Homo sapiens, UniProt O15315+O43502+O43543+O75771, O15315:E144A/O43502:E161A, form not given); assay: as above; assay type: binding; settings: RAD51B and RAD51C catalytic glutamate double mutant; 2.5 mM Mg2+, pH 7.5
T4 construct: four-subunit complex co-expressed in Sf9 cells; N-terminal TwinStrep-TEV tag on XRCC2 removed by TEV protease

[6] = target: T2, BCDX2 (RAD51B-RAD51C-RAD51D-XRCC2); assay: as above; assay type: binding; settings: RAD51B Walker A mutant; nucleotide co-purified with the complex; 2.5 mM Mg2+, pH 7.5; remark: listed apart in the source
[7] = target: T1, BCDX2 (RAD51B-RAD51C-RAD51D-XRCC2); assay: as above; assay type: binding; settings: nucleotide co-purified with the complex; 2.5 mM Mg2+, pH 7.5
[8] = target: T5, BCDX2 (RAD51B-RAD51C-RAD51D-XRCC2) (Homo sapiens, UniProt O15315+O43502+O43543+O75771, O15315:E144A, form not given); assay: ATPase assay, alpha-32P-ATP, TLC; assay type: biochemical; settings: RAD51B catalytic glutamate mutant; 15 µM ATP, 1 µM complex, 2.5 mM Mg2+, pH 7.5, 37 °C
T5 construct: four-subunit complex co-expressed in Sf9 cells; N-terminal TwinStrep-TEV tag on XRCC2 removed by TEV protease

[9] = target: T6, B(AF647)CDX2 (Homo sapiens, UniProt O15315;O43502;O75771;O43543 1-345+=GGGSGGGDSLEFIASKLA;1-376;1-328;1-280, internal_change); assay: bulk FRET; high FRET; RAD51B near 3' end; FA: protein in 25 mM HEPES pH 7.5, 10% glycerol, 2.5 mM MgCl2, 0.25 mM TCEP, 150 mM NaCl mixed 1:1 with oligo in HMT buffer, 50 mM NaCl (final ~100 mM NaCl, 5%); settings: protein: recombinant; TwinStrep-TEV on XRCC2 not cleaved; copies: 1;1;1;1; label: 3'-Cy3
T6 sequence 1: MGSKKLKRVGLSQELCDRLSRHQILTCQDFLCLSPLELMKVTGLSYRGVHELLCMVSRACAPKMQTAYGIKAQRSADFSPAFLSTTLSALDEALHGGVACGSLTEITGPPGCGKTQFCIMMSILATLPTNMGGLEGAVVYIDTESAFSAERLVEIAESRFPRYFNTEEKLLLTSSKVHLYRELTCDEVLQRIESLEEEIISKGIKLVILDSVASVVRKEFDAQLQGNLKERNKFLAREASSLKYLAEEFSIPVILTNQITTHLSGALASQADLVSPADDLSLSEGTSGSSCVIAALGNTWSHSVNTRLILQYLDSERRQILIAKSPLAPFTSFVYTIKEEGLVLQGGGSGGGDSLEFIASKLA
T6 sequence 2: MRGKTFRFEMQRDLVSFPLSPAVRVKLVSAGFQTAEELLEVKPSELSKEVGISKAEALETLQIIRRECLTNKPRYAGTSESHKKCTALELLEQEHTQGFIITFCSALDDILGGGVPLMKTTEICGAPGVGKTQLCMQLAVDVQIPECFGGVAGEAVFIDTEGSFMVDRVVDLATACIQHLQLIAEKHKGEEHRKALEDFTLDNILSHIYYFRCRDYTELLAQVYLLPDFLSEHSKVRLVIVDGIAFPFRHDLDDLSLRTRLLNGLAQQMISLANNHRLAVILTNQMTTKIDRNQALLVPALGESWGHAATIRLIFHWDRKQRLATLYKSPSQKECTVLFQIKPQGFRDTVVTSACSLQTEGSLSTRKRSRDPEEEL
T6 sequence 3: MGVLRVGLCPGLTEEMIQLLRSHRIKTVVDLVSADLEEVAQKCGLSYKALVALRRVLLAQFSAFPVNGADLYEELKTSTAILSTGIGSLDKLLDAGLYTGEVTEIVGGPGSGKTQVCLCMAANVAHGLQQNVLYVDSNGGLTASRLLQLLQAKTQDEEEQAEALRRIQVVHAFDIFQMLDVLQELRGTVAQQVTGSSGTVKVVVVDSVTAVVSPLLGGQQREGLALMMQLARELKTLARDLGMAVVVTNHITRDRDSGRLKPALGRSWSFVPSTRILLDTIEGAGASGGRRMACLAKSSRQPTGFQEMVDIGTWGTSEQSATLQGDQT
T6 sequence 4: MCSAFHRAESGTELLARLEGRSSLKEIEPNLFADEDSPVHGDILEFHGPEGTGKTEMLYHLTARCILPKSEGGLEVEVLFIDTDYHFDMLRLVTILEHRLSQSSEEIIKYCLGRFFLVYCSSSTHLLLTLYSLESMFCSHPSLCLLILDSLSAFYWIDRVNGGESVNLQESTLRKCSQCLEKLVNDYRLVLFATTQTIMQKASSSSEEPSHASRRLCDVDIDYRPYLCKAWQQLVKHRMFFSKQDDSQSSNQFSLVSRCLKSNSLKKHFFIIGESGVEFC

[10] = target: T7, BCDX2(AF647) (Homo sapiens, UniProt O15315;O43502;O75771;O43543 1-345;1-376;1-328;1-280); assay: bulk FRET; high FRET; XRCC2 near 5' end; FA: protein in 25 mM HEPES pH 7.5, 10% glycerol, 2.5 mM MgCl2, 0.25 mM TCEP, 150 mM NaCl mixed 1:1 with oligo in HMT buffer, 50 mM NaCl (final ~100 mM NaCl, 5%); settings: protein: recombinant; copies: 1;1;1;1; label: 5'-Cy3
T7 sequence 1: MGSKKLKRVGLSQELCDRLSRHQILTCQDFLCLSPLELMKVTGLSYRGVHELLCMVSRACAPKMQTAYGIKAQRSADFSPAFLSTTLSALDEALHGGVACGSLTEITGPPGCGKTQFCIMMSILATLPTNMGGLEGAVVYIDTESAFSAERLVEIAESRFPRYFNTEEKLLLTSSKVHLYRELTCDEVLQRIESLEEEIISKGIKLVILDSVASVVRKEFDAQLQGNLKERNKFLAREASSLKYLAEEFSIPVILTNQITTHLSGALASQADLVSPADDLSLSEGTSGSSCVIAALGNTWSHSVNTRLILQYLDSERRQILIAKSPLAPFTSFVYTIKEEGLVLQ
T7 sequence 2: T6 sequence 2
T7 sequence 3: T6 sequence 3
T7 sequence 4: T6 sequence 4

[11] = target: T8, B(R231A)CDX2 (Homo sapiens, UniProt O15315;O43502;O75771;O43543 1-345;1-376;1-328;1-280, R231A); assay: fluorescence anisotropy; 1 mM ATP; similar to WT; FA: protein in 25 mM HEPES pH 7.5, 10% glycerol, 2.5 mM MgCl2, 0.25 mM TCEP, 150 mM NaCl mixed 1:1 with oligo in HMT buffer, 50 mM NaCl (final ~100 mM NaCl, 5%); settings: protein: recombinant; tags: N-terminal TwinStrep-TEV on XRCC2, cleaved; copies: 1;1;1;1; label: 5'-FAM
T8 sequence 1: T7 sequence 1 with R231A
T8 sequence 2: T6 sequence 2
T8 sequence 3: T6 sequence 3
T8 sequence 4: T6 sequence 4

[12] = target: T9, B(R217A)CDX2 (Homo sapiens, UniProt O15315;O43502;O75771;O43543 1-345;1-376;1-328;1-280, R217A); assay: as above; settings: protein: recombinant; tags: N-terminal TwinStrep-TEV on XRCC2, cleaved; copies: 1;1;1;1; label: 5'-FAM
T9 sequence 1: T7 sequence 1 with R217A
T9 sequence 2: T6 sequence 2
T9 sequence 3: T6 sequence 3
T9 sequence 4: T6 sequence 4

[13] = target: T10, BCD(R221A)X2 (Homo sapiens, UniProt O15315;O43502;O75771;O43543 1-345;1-376;1-328;1-280, R221A); assay: fluorescence anisotropy; 1 mM ATP; minimal effect; FA: protein in 25 mM HEPES pH 7.5, 10% glycerol, 2.5 mM MgCl2, 0.25 mM TCEP, 150 mM NaCl mixed 1:1 with oligo in HMT buffer, 50 mM NaCl (final ~100 mM NaCl, 5%); settings: protein: recombinant; tags: N-terminal TwinStrep-TEV on XRCC2, cleaved; copies: 1;1;1;1; label: 5'-FAM
T10 sequence 1: T7 sequence 1
T10 sequence 2: T6 sequence 2
T10 sequence 3: T6 sequence 3 with R221A
T10 sequence 4: T6 sequence 4

T2 sequence (O15315 1-345 K114A, form open, one chain of several): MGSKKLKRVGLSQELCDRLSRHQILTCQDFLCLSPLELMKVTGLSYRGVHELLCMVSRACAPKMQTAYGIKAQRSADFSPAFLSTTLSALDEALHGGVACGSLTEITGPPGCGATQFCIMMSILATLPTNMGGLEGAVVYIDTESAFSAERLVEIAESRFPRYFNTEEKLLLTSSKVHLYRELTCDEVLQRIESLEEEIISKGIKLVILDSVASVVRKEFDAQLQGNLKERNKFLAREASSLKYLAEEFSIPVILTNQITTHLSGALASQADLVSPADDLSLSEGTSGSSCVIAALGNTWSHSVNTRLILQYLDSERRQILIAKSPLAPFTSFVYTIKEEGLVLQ
T5 sequence (O15315 1-345 E144A, form open, one chain of several): as the sequence (O15315 1-345 K114A, form open, one chain of several) above, with A114K, E144A counted along it
T4 sequence (O15315 1-345 E144A, form open, one chain of several): as the sequence (O15315 1-345 K114A, form open, one chain of several) above, with A114K, E144A counted along it
T4 sequence (O43502 whole entry E161A, form open, one chain of several): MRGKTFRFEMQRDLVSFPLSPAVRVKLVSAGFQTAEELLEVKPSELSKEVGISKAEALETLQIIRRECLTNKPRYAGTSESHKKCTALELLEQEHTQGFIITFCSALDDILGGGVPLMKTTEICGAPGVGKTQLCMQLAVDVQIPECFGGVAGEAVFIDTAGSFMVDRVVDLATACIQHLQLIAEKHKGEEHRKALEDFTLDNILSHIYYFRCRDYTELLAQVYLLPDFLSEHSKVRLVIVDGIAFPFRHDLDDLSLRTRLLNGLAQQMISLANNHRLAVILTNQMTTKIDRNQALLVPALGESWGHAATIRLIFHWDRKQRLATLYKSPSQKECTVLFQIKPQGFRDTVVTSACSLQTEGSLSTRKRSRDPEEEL
T3 sequence (O43502 whole entry E161A, form open, one chain of several): as above

nt of ADP bound per complex [2]: 1.2 ± 0.1 nt per complex
nt of ADP bound per complex [3]: 1.9 ± 0.1 nt per complex
Molecule: Nc1ncnc2c1ncn2[C@@H]1O[C@H](COP(=O)(O)OP(=O)(O)O)[C@@H](O)[C@H]1O [ADP]
cryo-EM structure (2.2 Å and 3.4 Å) ([1]; site: RAD51C nucleotide site): RAD51D and XRCC2 bound ATP whereas RAD51C bound ADP

nt of ATP bound per complex [6]: 1.8 ± 0.1 nt per complex
nt of ATP bound per complex [7]: 2.1 ± 0.2 nt per complex
% reduction of ATPase activity relative to wild-type [8]: ~ 50%
Molecule: Nc1ncnc2c1ncn2[C@@H]1O[C@H](COP(=O)(O)OP(=O)(O)OP(=O)(O)O)[C@@H](O)[C@H]1O [ATP]
HPLC of nucleotides extracted from purified complex [4]: all nucleotide binding sites were fully occupied with ATP
HPLC of nucleotides extracted from purified complex [5]: all nucleotide binding sites were fully occupied with ATP
cryo-EM structure (2.2 Å and 3.4 Å) ([1]; sites: RAD51D and XRCC2 nucleotide sites, co-purified nucleotide): RAD51D and XRCC2 bound ATP whereas RAD51C bound ADP

Molecule: TATCGAATCCGTCTA (ssDNA) [dN15nt-Cy3-3']
binding result [9]: binds

Molecule: TATCGAATCCGTCTA (ssDNA) [5'-Cy3-dN15nt]
binding result [10]: binds

Molecule: TATCGAATCCGTCTA (ssDNA) [FAM-dN15nt]
binding result [11]: binds
binding result [12]: binds
binding result [13]: binds
